In brackets after ≈: the same amount, converted by molar mass.

Usually solubility (kinetic) stands for solubility judged after dilution from a stock solution rather than from solid.

The conditions of this series: buffer; pH 7.4; 200.0 µM.
Regarding `COc1ccc2[nH]cc(CCNC(=O)Cc3ccc(F)cc3)c2c1`, the kinetic solubility was 25.4 µg/mL (≈ 77.8 µM).
The result for `COc1ccc(NC(=O)c2cccc(-c3ccc(O)cc3)c2)cn1` reads 9.7 µg/mL (≈ 30.3 µM); that for `O=C(NCCOC(=O)c1ccc(F)cc1)c1ccc(F)cc1`, 10.4 µg/mL (≈ 34.1 µM).
In the case of `O=C(O)c1ccc2c(c1)CCCN2`, the kinetic solubility was greater than 26.6 µg/mL.
The result for `COc1ccc(N(C)C(=S)Nc2ccc3nc(C)c(C)nc3c2)cc1` reads 4.1 µg/mL (≈ 11.6 µM); that for `CCn1c(C)c(C(=O)Nc2ccc(OC)cc2)c2cc(OC)ccc21`, 0.4 µg/mL (≈ 1.18 µM).
The result for `COCCN(Cc1ccccc1)C(=S)Nc1ccc(Cl)cc1` reads 8.6 µg/mL (≈ 25.7 µM); that for `CC(C)C[C@H](NC(=O)NCCC1=CCCCC1)C(=O)O`, 40.9 µg/mL (≈ 145 µM).
The result for `O=[N+]([O-])c1ccc(Nc2nc(Cl)nc(NCCO)n2)cc1` reads 2.6 µg/mL (≈ 8.37 µM).
The compound `CN(C)/C=C1/NC(=S)NC1=O` displayed a solubility (kinetic) greater than 25.7 µg/mL.
On to `CCCC(=O)Oc1cccc(C2NC(=O)c3ccccc3O2)c1` (configuration not stated), for which the solubility (kinetic) stood at 18.8 µg/mL (≈ 60.4 µM).
In the case of `Cn1cccc1/C=C1/C(=O)NC(=O)N(C(C)(C)C)C1=O`, the kinetic solubility was determined as 37.1 µg/mL (≈ 135 µM).
The result for `O=C(NC(=S)Nc1ccccc1C(=O)O)c1ccc2ccccc2c1` reads 38.2 µg/mL (≈ 109 µM); that for `CN(C)C(=O)CSc1ccc(S(=O)(=O)N2CCCC2)cn1`, greater than 49.4 µg/mL.
The result for `Cc1ccc(NCC(O)Cn2cnc3c2c(=O)n(C)c(=O)n3C)cc1` (configuration not stated) reads 31.8 µg/mL (≈ 92.6 µM); that for `CCC(=O)N(Cc1cc(=O)[nH]c2ccccc12)c1ccc(C)cc1`, greater than 48.1 µg/mL; that for `C=CCn1c(SCC(=O)N(C)C)nc2sc3c(c2c1=O)CCC3`, 3.4 µg/mL (≈ 9.73 µM).
The result for `CCNC(=S)NCCC1=c2ccccc2=N/C1=C\c1c(O)n(C)c(=O)n(C)c1=O` reads 19.3 µg/mL (≈ 46.7 µM); that for `CC(C)CN1CCN(Cc2c[nH]c3ccccc23)CC1CCO` (configuration not stated), 33.3 µg/mL (≈ 106 µM); that for `COc1ccc(NCC(=O)N/N=C/C(C)c2ccccc2)cc1` (configuration not stated), greater than 46.7 µg/mL.
In the case of `NC(=O)c1ccc(CN2CCc3ccccc3C2)cc1`, the solubility (kinetic) worked out at 34.5 µg/mL (≈ 130 µM).
The result for `CC(NC(=O)Nc1ccc(F)cc1F)c1ccc2c(c1)OCO2` (configuration not stated) reads 2.4 µg/mL (≈ 7.49 µM); that for `CN(Cc1c(F)cccc1Cl)C(=O)c1cnc2ccccc2n1`, 38.3 µg/mL (≈ 116 µM).
The result for `CCn1cc(C=C2C(=O)NC(=O)NC2=O)c2ccccc21` reads 1.8 µg/mL (≈ 6.35 µM).
The result for `CCc1ccccc1N1C(=O)[C@@H]2Cc3ccccc3CN2C1=O` reads 43.1 µg/mL (≈ 141 µM).
On to `OC(C#CCCN1CCCCC1)(c1ccccc1)C1CCCCC1` (configuration not stated), for which the solubility (kinetic) worked out at 25.1 µg/mL (≈ 77.1 µM). Against the preceding compound, the solubility kinetic is about 1.7-fold lower.
Compound `O=C(NCCNC(=O)c1cnccn1)c1ccc(Cl)c(Cl)c1` had a kinetic solubility of 6.9 µg/mL (≈ 20.3 µM).
The result for `O=C1C(Cc2ccc(O)cc2)NC(=S)N1Cc1ccccc1` (configuration not stated) reads greater than 46.9 µg/mL; that for `CC1(C)N=c2ccc([N+](=O)[O-])c(N)c2=[N+]1[O-]`, 30 µg/mL (≈ 135 µM); that for `Cc1nc2ccc([N+](=O)[O-])cc2c(=O)n1Cc1ccc(F)cc1`, 4.7 µg/mL (≈ 15 µM).
For the compound `CCOc1ccc(C(=O)OC(C)C(=O)N2CCN(Cc3ccccc3)CC2)cc1` (configuration not stated), the kinetic solubility was greater than 59.5 µg/mL.
The result for `COc1ccc(-c2cc(CS(=O)(=O)c3ccccc3)on2)cc1` reads 0.7 µg/mL (≈ 2.13 µM); that for `COc1cc(C(=O)N[C@H](C(=O)NC2CCCc3ccccc32)C(C)C)cc(OC)c1OC` (some centres not stated), 4.9 µg/mL (≈ 11.1 µM).
`CN(CC(=O)Nc1ccc(F)c(F)c1F)C(=O)c1ccc(=O)[nH]c1` registered a kinetic solubility greater than 50.9 µg/mL.
The compound `CCC1(C)Cc2c(C#N)c(N)n(-c3ccccc3)c(=S)c2CO1` (configuration not stated) came in with a solubility (kinetic) of 26.4 µg/mL (≈ 81.1 µM).
The result for `Cc1ccc(C(=O)Cn2c(C(=O)O)cc3ccccc32)cc1` reads greater than 44 µg/mL; that for `Cc1cc(F)ccc1S(=O)(=O)Nc1nc2ccccc2nc1Cl`, greater than 52.8 µg/mL; that for `CC1CCN(S(=O)(=O)c2ccc3[nH]c(=O)[nH]c3c2)CC1`, 3.2 µg/mL (≈ 10.8 µM).
The result for `Cl.O=C(NC1CCN(Cc2ccccc2)CC1)c1ccccc1NS(=O)(=O)c1ccc(F)cc1` reads greater than 75.6 µg/mL; that for `COc1ccc(NC(=O)C(=O)NCCCn2ccnc2)cc1`, 43.1 µg/mL (≈ 143 µM).
The compound `CCN(CC)C(=O)c1ccc(NC(=O)c2cccc(C(F)(F)F)c2)cc1` registered a kinetic solubility of 2.8 µg/mL (≈ 7.68 µM). Against the preceding compound, the solubility kinetic is about 15-fold lower.
The result for `O=C(/C=C/c1ccco1)NCCc1ccc(F)cc1` reads 10.3 µg/mL (≈ 39.7 µM).
Compound `O=C(NC1(C(F)(F)F)N=C2SCCN2C1=O)c1ccccc1F` (configuration not stated) yielded a solubility (kinetic) of 50.5 µg/mL (≈ 145 µM). Compared with the last compound, the solubility kinetic is about 4.9-fold higher.
As to `CCOC(=O)CN1C(=O)S/C(=C/c2ccc(C)o2)C1=O`, the kinetic solubility worked out at 29.2 µg/mL (≈ 98.9 µM).
As to `Cc1nn(Cc2cccc(C(=O)O)c2)c(C)c1[N+](=O)[O-]`, the kinetic solubility was greater than 41.3 µg/mL.
The result for `CC(C)(C)N(Cc1ccccc1)C(=O)c1cccs1` reads 1.7 µg/mL (≈ 6.22 µM); that for `COc1ccc(C(=O)NCC(=O)c2ccccc2)cc1`, greater than 40.4 µg/mL; that for `CC(C)N(C(=O)Cn1cc(SCC(N)=O)c2ccccc21)C(C)C`, greater than 52.1 µg/mL.
Take `COCCn1c(C)cc(/C=C2/SC(=O)N(C(C)C(=O)OC)C2=O)c1C` (configuration not stated): the solubility (kinetic) was found to be 36 µg/mL (≈ 98.2 µM).
Compound `Cc1ccccc1N1C(=O)CC2(CCCC2)CC1=O` showed a kinetic solubility of 37.2 µg/mL (≈ 145 µM).
Compound `COc1ccccc1OCC(=O)Nc1nc2c(s1)CCCC2` gave a solubility (kinetic) of 8 µg/mL (≈ 25.1 µM).
`CC(=O)c1ccc(O)c(CSc2nncn2C)c1` came in with a solubility (kinetic) greater than 39.5 µg/mL.

These data come from PubChem BioAssay AID1996.
